According to US20030139397A1, “Arthropodicidal carboxanilides” (priority 2002, published 2003):

Each compound was assayed on tobacco budworm (Heliothis virescens). Conditions: in vivo.
Procedure: See Index Table A for compound descriptions. The following abbreviations are used in the Index Table that follows: n is normal, i is iso, Pr […], and Ph is phenyl. The abbreviation “Ex.” stands for “Example” and is followed by a number indicating in which example the compound is prepared.
Test units, each consisting of a H.I.S. (high impact styrene) tray with 16 cells were prepared. Wet filter paper and approximately 8 cm^2 of lima bean leaf were placed into twelve of the cells. A 0.5-cm layer of wheat germ diet was placed into the four remaining cells. Fifteen to twenty third-instar larvae of fall armyworm (Spodoptera frugiperda) were placed into a 230-mL (8-ounce) plastic cup. Solutions of each of the test compounds in 75:25 acetone-distilled water solvent were sprayed into the tray and cup. Spraying was accomplished by passing the tray and cup on a conveyer belt directly beneath a flat fan hydraulic nozzle which discharged the spray at a rate of 0.138 kilograms of active ingredient per hectare (about 0.13 pounds per acre) at 207 kPa (30 p.s.i.). The insects were transferred from the 230-mL cup to the H.I.S. tray (one insect per cell). The trays were covered and held at 27° C. and 50% relative humidity for 48 hours, after which time readings were taken on the twelve cells with lima bean leaves. The four remaining cells were read at 6-8 days for delayed toxicity.
The test procedure of TEST A was repeated for determining efficacy against third-instar larvae of the tobacco budworm (Heliothis virescens) except that three 230-mL (8-ounce) plastic cups with wheat germ diet were used in place of the H.I.S. tray, with each cup pre-infected with five third-instar larvae.

Compound	mortality levels
CN1N=C(C(=O)Nc2ccc(OC(F)(F)F)cc2)N=C2c3ccc(F)cc3CC21C (stereo not drawn) [Compound 17]	≥ 80%
CC(C)C12Cc3cc(Cl)ccc3C1=NC(C(=O)Nc1ccc(OC(F)(F)F)cc1)=NN2 (stereo not drawn) [Compound 15]	≥ 80%
CN1N=C(C(=O)Nc2ccc(C(F)(F)F)cc2)N=C2c3ccc(F)cc3CC21C (stereo not drawn) [Compound 19]	≥ 80%
CN1N=C(C(=O)Nc2ccc(C(F)(F)F)cc2)N=C2c3ccc(C(F)(F)F)cc3CC21C (stereo not drawn) [Compound 9]	≥ 80%
CC12Cc3cc(F)ccc3C1=NC(C(=O)Nc1ccc(OC(F)(F)F)cc1)=NN2 (stereo not drawn) [Compound 14]	≥ 80%
O=C(Nc1ccc(OC(F)(F)F)cc1)C1=NNC2(c3ccc(F)cc3)Cc3cc(F)ccc3C2=N1 (stereo not drawn) [Compound 13]	≥ 80%
CCCC12Cc3cc(Cl)ccc3C1=NC(C(=O)Nc1ccc(SC(F)(F)F)cc1)=NN2 (stereo not drawn) [Compound 20]	≥ 80%
CN1N=C(C(=O)Nc2ccc(OC(F)(F)F)cc2)N=C2c3ccc(C(F)(F)F)cc3CC21C (stereo not drawn) [Compound 10]	≥ 80%
COC(=O)N1N=C(C(=O)Nc2ccc(OC(F)(F)F)cc2)N=C2c3ccc(F)cc3CC21c1ccc(F)cc1 (stereo not drawn) [Compound 16]	≥ 80%
CCCC12Cc3cc(C(F)(F)F)ccc3C1=NC(C(=O)Nc1ccc(OC(F)(F)F)cc1)=NN2C (stereo not drawn) [Compound 8]	≥ 80%
CCCC12Cc3cc(Cl)ccc3C1=NC(C(=O)Nc1ccc(OC(F)(F)F)cc1)=NN2C (stereo not drawn) [Compound 6]	≥ 80%
CCCC12Cc3cc(C(F)(F)F)ccc3C1=NC(C(=O)Nc1ccc(SC(F)(F)F)cc1)=NN2 (stereo not drawn) [Compound 21]	≥ 80%
CCCC12Cc3cc(Cl)ccc3C1=NC(C(=O)Nc1ccc(C(F)(F)F)cc1)=NN2C (stereo not drawn) [Compound 5]	≥ 80%
O=C(Nc1ccc(SC(F)(F)F)cc1)C1=NNC2(c3ccc(F)cc3)Cc3cc(F)ccc3C2=N1 (stereo not drawn) [Compound 22]	≥ 80%
CCCC12Cc3cc(C(F)(F)F)ccc3C1=NC(C(=O)Nc1ccc(C(F)(F)F)cc1)=NN2C(C)=O (stereo not drawn) [Compound 11]	≥ 80%
CCCC12Cc3cc(Cl)ccc3C1=NC(C(=O)Nc1ccc(Br)cc1)=NN2 (stereo not drawn) [Compound 2]	≥ 80%
CCCC12Cc3cc(C(F)(F)F)ccc3C1=NC(C(=O)Nc1ccc(OC(F)(F)F)cc1)=NN2C(C)=O (stereo not drawn) [Compound 12]	≥ 80%
CCCC12Cc3cc(C(F)(F)F)ccc3C1=NC(C(=O)Nc1ccc(C(F)(F)F)cc1)=NN2C (stereo not drawn) [Compound 7]	≥ 80%
